Test results taken from patent US20260207702A1, “USE OF AVPR1A AGONISTS” (Viage Therapeutics Inc., priority 2022, published 2026).
Where a SMILES comes first, the peptide text is derived from it. Bridges are numbered along the chain shown (N, C = ends).

Tests used:
mouse [1] = experiment: Mouse tail suspension test with felypressin (Example 5); assay type: in vivo
Description: The effect of orally administered felypressin, a selective AVPR1A agonist, on antidepressant activity in the mouse tail suspension test was evaluated. Felypressin at 0.03 mg/kg, 0.1 mg/kg, and 0.3 mg/kg was compared to the peptide […] (SEQ ID NO: 1) at 0.3 mg/kg (n=6 per group). The effect of orally administered felypressin (0.1 mg/kg) was also compared to the effect of orally administered felypressin (0.1 mg/kg) plus the AVPR1A/AVPR2 inhibitor conivaptan (3 mg/kg) (n=7 per group).

mouse [2] = experiment: Tail suspension test (TST) with vasopressin receptor inhibitors (Example 1); assay type: in vivo
From the text: NO: 1) is either AVPR1A or AVPR2 (FIGS. 1-2).

healthy subjects = settings: in vivo
Description: A Phase 1a/1b, randomized, placebo-controlled, crossover study with the peptide [sequence] (SEQ ID NO: 1) in healthy subjects was performed. The study population included men and women in good general health.
A single ascending dose (SAD) group included four cohorts receiving 60 mg/day (cohorts SAD1 and SAD2), 180 mg/day (cohort SAD3), or 540 mg/day (cohort SAD4) of the peptide or placebo. […] All doses were administered orally. […] Seven days after the end of dosing, this group was then switched to receiving placebo once a day for seven days, followed by another 24-hour period of sleep deprivation. then crossing to 540 mg of peptide once a day for 7 days. In another group (n=7, with one participant withdrawing after initiation for personal reasons), the inverse dose regimen was used, with participants starting with placebo and the crossing over to 540 mg of peptide once a day.

mouse [3] = experiment: Mouse tail suspension test with desmopressin (Example 6); assay type: in vivo; settings: oral desmopressin 0.03, 0.1, 0.3, 1.0 mg/kg vs felypressin 0.1 mg/kg
Description: Desmopressin at 0.03 mg/kg, 0.1 mg/kg, and 0.3 mg/kg was compared to felypressin at 0.1 mg/kg (n=6 per group) in a first study. Desmopressin at 0.1 mg/kg, 0.3 mg/kg, and 1.0 mg/kg was compared to felypressin at 0.1 mg/kg (n=6 per group) in a first study.

SMILES: Cc1nc2c([nH]1)-c1ccccc1N(C(=O)c1ccc(NC(=O)c3ccccc3-c3ccccc3)cc1)CC2 [conivaptan]
- Blocking of felypressin activity in the tail suspension test (mouse [1]; oral felypressin 0.1 mg/kg plus conivaptan 3 mg/kg): blocks
- Blocking of LSSTQAQQSY (SEQ ID NO: 1) activity in a tail suspension test (reduced TST immobility) (mouse [2]; low doses of inhibitor): blocks
- Blocking of LSSTQAQQSY (SEQ ID NO: 1) activity in a tail suspension test (reduced TST immobility) (mouse [2]; mouse, in vivo): blocks

SMILES: NCCCC[C@H](NC(=O)[C@@H]1CCCN1C(=O)[C@@H]1CSSC[C@H](N)C(=O)N[C@@H](Cc2ccccc2)C(=O)N[C@@H](Cc2ccccc2)C(=O)N[C@@H](CCC(N)=O)C(=O)N[C@@H](CC(N)=O)C(=O)N1)C(=O)NCC(N)=O [felypressin] (H-CFFQNCPKG-NH2; disulfide 1-6)
- Antidepressant activity in the mouse tail suspension test (mouse [1]; orally administered, 0.03, 0.1 and 0.3 mg/kg): induces an antidepressant effect

SMILES: Cc1ccccc1C(=O)Nc1ccc(C(=O)N2CCCC(O)c3cc(Cl)ccc32)c(C)c1 (centres unmarked) [tolvaptan]
- Blocking of LSSTQAQQSY (SEQ ID NO: 1) activity in a tail suspension test (reduced TST immobility) (mouse [2]; mouse, in vivo): does not block

SMILES: CC(C)C[C@H](N)C(=O)N[C@@H](CO)C(=O)N[C@@H](CO)C(=O)N[C@H](C(=O)N[C@@H](CCC(N)=O)C(=O)N[C@@H](C)C(=O)N[C@@H](CCC(N)=O)C(=O)N[C@@H](CCC(N)=O)C(=O)N[C@@H](CO)C(=O)N[C@@H](Cc1ccc(O)cc1)C(=O)O)[C@@H](C)O [LSSTQAQQSY (SEQ ID NO: 1), LSSTQAQQSY] (H-LSSTQAQQSY-OH; N-terminus and C-terminus assumed)
- Vital signs, electrocardiography (ECG) data, and physical examinations (healthy subjects): normal

SMILES: COc1ccc(S(=O)(=O)N2C(=O)[C@@](c3ccccc3OC)(N3C[C@H](O)C[C@H]3C(=O)N(C)C)c3cc(Cl)ccc32)c(OC)c1 [nelivaptan]
- Blocking of LSSTQAQQSY (SEQ ID NO: 1) activity in a tail suspension test (reduced TST immobility) (mouse [2]; mouse, in vivo): blocks

SMILES: NC(=O)CC[C@@H]1NC(=O)[C@H](Cc2ccccc2)NC(=O)[C@H](Cc2ccc(O)cc2)NC(=O)CCSSC[C@@H](C(=O)N2CCC[C@H]2C(=O)N[C@H](CCCN=C(N)N)C(=O)NCC(N)=O)NC(=O)[C@H](CC(N)=O)NC1=O [desmopressin, 1-desamino-8-D-arginyl vasopressin]
- Antidepressant activity in the mouse tail suspension test, compared to felypressin (mouse [3]): less of an effect than felypressin
